{"source": "patent EP1081144A2", "about": "“Process for making 5-lipoxygenase inhibitors having varied heterocyclic ring systems” (Pfizer Products Inc., priority 1999, dated 2001)", "assay": "Solubility of the reaction product in acetic acid and in acetic acid/water", "assay_type": "physicochemical", "settings": "organic solvent or mixture", "description": "The reaction mixture was cooled to 22°C and granulated for 1 hour. The resulting slurry was then vacuum filtered and the filter cake was washed twice with water (100 ml). The filter cake (75 g) was placed in a 50°C vacuum drier with a nitrogen bleed, after which 23.04 g of solid product were obtained for a yield of 74.0%."}
{"smiles": "NC(=O)C1(c2cccc(Sc3ccc(F)cc3)c2)CCOCC1", "note": "[Example 3, tetrahydro-4-[3-(4-fluorophenyl)thio]phenyl-2H-pyran-4-carboxamide]", "values": [{"measurement": "solubility", "setting": "in a 2:1 mixture of acetic acid and water", "value": "~4.5", "unit": "mg/mL"}, {"measurement": "solubility", "setting": "in acetic acid at room temperature", "value": "~62", "unit": "mg/mL"}]}
